Test results reported in patent US8569302B2, “Inhibitors of flaviviridae viruses” (Gilead Sciences, Inc., priority 2009, dated 2013).

Tested on: human hepatoma Huh-7 cell line harboring a HCV replicon
Assay: HCV replicon assay (inhibition of viral replication, luciferase readout)
Type: cell-based
Details: Hepatitis C virus, 72 h, Huh-7 HCV replicon cells, 3 days incubation
Experimental: The anti-HCV activity of the compounds of this invention was tested in a human hepatoma Huh-7 cell line harboring a HCV replicon. The assay comprised the following steps:
Step 1: Compound Preparation and Serial Dilution.
Serial dilution was performed in 100% DMSO in a 384-well plate. A solution containing a compound at 225-fold concentration of the starting final serial dilution concentration was prepared in 100% DMSO and 15 μL added to the pre-specified wells in column 3 or 13 of a polypropylene 384-well plate. The rest of the 384-well plate was filled with 10 μL 100% DMSO except for columns 23 and 24, where 10 μL of 500 μM a HCV protease inhibitor (ITMN-191) in 100% DMSO was added. The HCV protease inhibitor was used a control of 100% inhibition of HCV replication. The plate was then placed on a Biomek FX Workstation to start the serial dilution. The serial dilution was performed for ten cycles of 3-fold dilution from column 3 to 12 or from column 13 to 22.
Step 2: Cell Culture Plate Preparation and Compound Addition
To each well of a black polypropylene 384-well plate, 90 μL of cell media containing 1600 suspended Huh-7 HCV replicon cells was added with a Biotek uFlow Workstation. A volume of 0.4 μL of the compound solution was transferred from the serial dilution plate to the cell culture plate on a Biomek FX Workstation. The DMSO concentration in the final assay condition was 0.44%. The plates were incubated for 3 days at 37° C. with 5% CO2 and 85% humidity.
Step 3: Detection of Cytotoxicity and Inhibition of Viral Replication
a) Assessment of cytotoxicity: The media in the 384-well cell culture plate was aspirated with a Biotek EL405 plate-washer. A volume of 50 μL of a solution containing 400 nM Calcein AM in 100% PBS was added to each well of the plate with a Biotek uFlow Workstation. The plate was incubated for 30 minutes at room temperature before the fluorescence signal ([…]) was measured with a Perkin Elmer Envision Plate Reader.
b) Assessment of inhibition of viral replication: The calcein-PBS solution in the 384-well cell culture plate was aspirated with a Biotek EL405 plate-washer. A volume of 20 μL of Dual-Glo luciferase buffer (Promega, Dual-Glo Luciferase Assay Reagent, cat. #E298B) was added to each well of the plate with a Biotek uFlow Workstation. The plate was incubated for 10 minutes at room temperature. A volume of 20 μL of a solution containing 1:100 mixture of Dual-Glo Stop & Glo substrate (Promega, Dual-Glo Luciferase Assay Reagent, cat. #E313B) and Dual-Glo Stop & Glo buffer (Promega, Dual-Glo Luciferase Assay Reagent, cat. #E314B) was then added to each well of the plate with a Biotek uFlow Workstation. The plate was incubated at room temperature for 10 minutes before the luminescence signal was measured with a Perkin Elmer Envision Plate Reader.
The percent cytotoxicity was determined by calcein AM conversion to fluorescent product. The average fluorescent signal from the DMSO control wells was defined as 100% nontoxic. The individual fluorescent signal from testing compound treated well was divided by the average signal from DMSO control wells and then multiplied by 100% to get the percent viability. The percent anti-HCV replication activity was determined by the luminescence signal from the testing well compared to DMSO control wells. The background signal was determined by the average luminescence signal from the HCV protease inhibitor treated wells and was subtracted from the signal from the testing wells as well as the DMSO control wells. Following 3-fold serial dilutions, the EC50 and CC50 values were calculated by fitting % inhibition at each concentration to the following equation: % inhibition=100%/[EC50/[I])^b+1]
Where b is Hill's coefficient. See, for reference, Hill, A. V., The Possible Effects of the Aggregation of the Molecules of Hæmoglobin on its Dissociation Curves, J. Physiol. 40: iv-vii. (1910). […]

Row | Structure (SMILES) | inhibition at 2 µM [%]
1 | C[C@@H](CCOc1cc(CN(C)C)ccn1)N(c1cc(C#CC(C)(C)C)sc1C(=O)O)C(=O)[C@H]1CC[C@H](C)CC1 [Compound 61, 3-[[3-(4-dimethylaminomethyl-pyridin-2-yloxy)-1-(S)-methyl-propyl]-(trans-4-methyl-cyclohexanecarbonyl)-amino]-5-(3,3-dimethyl-but-1-ynyl)-thiophene-2-carboxylic acid] | 99.9
2 | C[C@@H](CCOc1cc(CN2CCCC2)ccn1)N(c1cc(C#CC(C)(C)C)sc1C(=O)O)C(=O)[C@H]1CC[C@H](C)CC1 [Compound 62, 5-(3,3-dimethyl-but-1-ynyl)-3-[(trans-4-methyl-cyclohexanecarbonyl)-[1-(S)-methyl-3-(4-pyrrolidin-1-yl-methyl-pyridin-2-yloxy)-propyl]-amino]-thiophene-2-carboxylic acid] | 100
3 | C[C@@H](CCOc1ccc(O)nn1)N(c1cc(C#CC(C)(C)C)sc1C(=O)O)C(=O)[C@H]1CC[C@H](C)CC1 [Compound 63, 5-(3,3-dimethyl-but-1-ynyl)-3-[[3-(6-hydroxy-pyridazin-3-yloxy)-1-(S)-methyl-propyl]-(trans-4-methyl-cyclohexanecarbonyl)-amino]-thiophene-2-carboxylic acid] | 100
4 | Cn1cnnc1S[C@H]1CC[C@H](N(c2cc(C#CC(C)(C)C)sc2C(=O)O)C(=O)[C@H]2CC[C@H](C)CC2)CC1 [Compound 84, 5-(3,3-dimethylbut-1-ynyl)-3-(4-methyl-N-(4-(4-methyl-4H-1,2,4-triazol-3-ylthio)cyclohexyl)cyclohexanecarboxamido)thiophene-2-carboxylic acid] | 99.9
5 | Cn1cnnc1S[C@H]1CC[C@@H](N(c2cc(C#CC(C)(C)C)sc2C(=O)O)C(=O)[C@H]2CC[C@H](C)CC2)CC1 [Compound 85, 5-(3,3-dimethylbut-1-ynyl)-3-(4-methyl-N-(4-(4-methyl-4H-1,2,4-triazol-3-ylthio)cyclohexyl)cyclohexanecarboxamido)thiophene-2-carboxylic] | 99.6
6 | CC(C)(C)C#Cc1cc(N(C(=O)[C@H]2CC[C@H](C)CC2)[C@H]2CC[C@H](Sc3nncs3)CC2)c(C(=O)O)s1 [Compound 86, 3-(N-(4-(1,3,4-Thiadiazol-2-ylthio)cyclohexyl)-4-methylcyclohexanecarboxamido)-5-(3,3-dimethylbut-1-ynyl)thiophene-2-carboxylic acid] | 100
7 | CC(C)(C)C#Cc1cc(N(C(=O)[C@H]2CC[C@H](C)CC2)[C@H]2CC[C@H](Sc3ccncc3)CC2)c(C(=O)O)s1 [Compound 87, 5-(3,3-Dimethylbut-1-ynyl)-3-(4-methyl-N-(4-(pyridin-4-ylthio)cyclohexyl)cyclohexanecarboxamido)thiophene-2-carboxylic acid] | 99.5
8 | CC(C)(C)C#Cc1cc(N(C(=O)[C@H]2CC[C@H](C)CC2)[C@H]2CC[C@H](Sc3cccc[n+]3[O-])CC2)c(C(=O)O)s1 [Compound 88] | 98.5
9 | CCn1ccnc1S[C@H]1CC[C@H](N(c2cc(C#CC(C)(C)C)sc2C(=O)O)C(=O)[C@H]2CC[C@H](C)CC2)CC1 [Compound 89, 5-(3,3-Dimethylbut-1-ynyl)-3-(N-(4-(1-ethyl-1H-imidazol-2-ylthio)cyclohexyl)-4-methylcyclohexanecarboxamido)thiophene-2-carboxylic acid] | 99.4
10 | CC(C)(C)C#Cc1cc(N(C(=O)[C@H]2CC[C@H](C)CC2)[C@H]2CC[C@H](Sc3nncn3C3CC3)CC2)c(C(=O)O)s1 [Compound 90, 3-(N-(4-(4-Cyclopropyl-4H-1,2,4-triazol-3-ylthio)cyclohexyl)-4-methylcyclohexanecarboxamido)-5-(3,3-dimethylbut-1-ynyl)thiophene-2-carboxylic acid] | 100
11 | CC(C)(C)C#Cc1cc(N(C(=O)[C@H]2CC[C@H](C)CC2)[C@H]2CC[C@H](Sc3ccc4ccccc4n3)CC2)c(C(=O)O)s1 [Compound 91, 5-(3,3-Dimethylbut-1-ynyl)-3-(4-methyl-N-(4-(quinolin-2-ylthio)cyclohexyl)cyclohexanecarboxamido)thiophene-2-carboxylic acid] | 99.8
12 | CC(C)(C)C#Cc1cc(N(C(=O)[C@H]2CC[C@H](C)CC2)[C@H]2CC[C@H](Sc3nnc4ccccn34)CC2)c(C(=O)O)s1 [Compound 92, 3-(N-(4-([1,2,4]-Triazolo[4,3-a]pyridin-3-ylthio)cyclohexyl)-4-methylcyclohexanecarboxamido)-5-(3,3-dimethylbut-1-ynyl)thiophene-2-carboxylic acid] | 100
13 | CC(C)(C)C#Cc1cc(N(C(=O)[C@H]2CC[C@H](C)CC2)[C@H]2CC[C@H](Sc3cccs3)CC2)c(C(=O)O)s1 [Compound 93, 5-(3,3-Dimethylbut-1-ynyl)-3-(4-methyl-N-(4-(thiophen-2-ylthio)cyclohexyl)cyclohexanecarboxamido)thiophene-2-carboxylic acid] | 98.1
14 | CC(C)(C)C#Cc1cc(N(C(=O)[C@H]2CC[C@H](C)CC2)[C@H]2CC[C@H](Sc3ncc[nH]3)CC2)c(C(=O)O)s1 [Compound 94, 3-(N-(4-(1H-Imidazol-2-ylthio)cyclohexyl)-4-methylcyclohexanecarboxamido)-5-(3,3-dimethylbut-1-ynyl)thiophene-2-carboxylic acid] | 99.9
15 | CC(C)(C)C#Cc1cc(N(C(=O)[C@H]2CC[C@H](C)CC2)[C@H]2CC[C@H](Sc3nc(N)n[nH]3)CC2)c(C(=O)O)s1 [Compound 95, 3-(N-(4-(5-Amino-2H-1,2,4-triazol-3-ylthio)cyclohexyl)-4-methylcyclohexanecarboxamido)-5-(3,3-dimethylbut-1-ynyl)thiophene-2-carboxylic acid] | 99.9
16 | CC(C)(C)C#Cc1cc(N(C(=O)[C@H]2CC[C@H](C)CC2)[C@H]2CC[C@H](Sc3nc[nH]n3)CC2)c(C(=O)O)s1 [Compound 97, 3-(N-(4-(1H-1,2,4-Triazol-3-ylthio)cyclohexyl)-4-methylcyclohexanecarboxamido)-5-(3,3-dimethylbut-1-ynyl)thiophene-2-carboxylic acid] | 99.9
17 | Cc1nnc(S[C@H]2CC[C@H](N(c3cc(C#CC(C)(C)C)sc3C(=O)O)C(=O)[C@H]3CC[C@H](C)CC3)CC2)o1 [Compound 98, 5-(3,3-Dimethylbut-1-ynyl)-3-(4-methyl-N-(4-(5-methyl-1,3,4-oxadiazol-2-ylthio)cyclohexyl)cyclohexanecarboxamido)thiophene-2-carboxylic acid] | 100
18 | CC(C)(C)C#Cc1cc(N(C(=O)[C@H]2CC[C@H](C)CC2)[C@H]2CC[C@H](Sc3ccccn3)CC2)c(C(=O)O)s1 [Compound 99, 5-(3,3-Dimethylbut-1-ynyl)-3-(4-methyl-N-(4-(pyridin-2-ylthio)cyclohexyl)cyclohexanecarboxamido)thiophene-2-carboxylic acid] | 97.7
19 | CC(C)(C)C#Cc1cc(N(C(=O)[C@H]2CC[C@H](C)CC2)[C@H]2CC[C@H](Sc3ncccn3)CC2)c(C(=O)O)s1 [Compound 100, 5-(3,3-Dimethylbut-1-ynyl)-3-(4-methyl-N-(4-(pyrimidin-2-ylthio)cyclohexyl)cyclohexanecarboxamido)thiophene-2-carboxylic acid] | 99.9
20 | Cn1nnnc1S[C@H]1CC[C@H](N(c2cc(C#CC(C)(C)C)sc2C(=O)O)C(=O)[C@H]2CC[C@H](C)CC2)CC1 [Compound 101, 5-(3,3-Dimethylbut-1-ynyl)-3-(4-methyl-N-(4-(1-methyl-1H-tetrazol-5-ylthio)cyclohexyl)cyclohexanecarboxamido)thiophene-2-carboxylic acid] | 100
